Assay [1] concerns the target T1, Transient receptor potential cation channel subfamily A member 1 (Rattus norvegicus, UniProt Q6RI86). As to the kind of experiment: Antagonist activity at rat TRPA1 expressed in HEK293 cells assessed as inhibition of allyl isothiocyanate-induced increase of intracellular calcium level. It counts as cell-based.
The target in assay [2] is T2, Transient receptor potential cation channel subfamily V member 1 (Homo sapiens, UniProt Q8NER1). The assay can be described thus: Antagonist activity at human TRPV1 expressed in HEK293 cells assessed as inhibition of […]-induced increase of intracellular calcium level. It counts as cell-based.
T2 sequence (Q8NER1 whole entry): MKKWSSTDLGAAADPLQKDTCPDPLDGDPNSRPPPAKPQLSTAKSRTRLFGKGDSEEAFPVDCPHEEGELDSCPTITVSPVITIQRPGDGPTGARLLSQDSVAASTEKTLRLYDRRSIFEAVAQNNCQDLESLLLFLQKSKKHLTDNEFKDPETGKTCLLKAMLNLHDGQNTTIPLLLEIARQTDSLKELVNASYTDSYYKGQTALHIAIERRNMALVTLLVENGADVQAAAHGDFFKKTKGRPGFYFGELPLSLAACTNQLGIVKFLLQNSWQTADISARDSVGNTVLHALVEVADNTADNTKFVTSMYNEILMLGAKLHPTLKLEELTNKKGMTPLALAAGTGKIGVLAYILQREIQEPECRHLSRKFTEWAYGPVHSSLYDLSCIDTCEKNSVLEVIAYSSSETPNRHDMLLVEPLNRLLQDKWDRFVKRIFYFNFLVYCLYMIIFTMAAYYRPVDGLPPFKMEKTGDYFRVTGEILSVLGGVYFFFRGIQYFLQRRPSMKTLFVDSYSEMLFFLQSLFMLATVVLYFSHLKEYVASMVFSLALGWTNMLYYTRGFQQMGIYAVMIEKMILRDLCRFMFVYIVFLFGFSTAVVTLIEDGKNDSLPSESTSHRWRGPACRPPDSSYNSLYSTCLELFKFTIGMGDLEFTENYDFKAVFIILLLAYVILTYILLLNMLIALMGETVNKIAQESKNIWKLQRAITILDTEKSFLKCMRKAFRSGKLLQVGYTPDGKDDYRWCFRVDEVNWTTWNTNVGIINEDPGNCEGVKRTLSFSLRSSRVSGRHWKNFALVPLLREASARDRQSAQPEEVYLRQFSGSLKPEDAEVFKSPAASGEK
Assay [3] deals with T2, Transient receptor potential cation channel subfamily V member 1. The assay can be described thus: Agonist activity at human TRPV1 expressed in HEK293 cells assessed as induction of intracellular calcium level relative to […]. In kind it is cell-based. Background: Calcium assays in cells follow changes in intracellular calcium, usually with a dye or a luminescent sensor.

Assay [4] addresses Transient receptor potential cation channel subfamily A member 1 (Rattus norvegicus) (UniProt Q6RI86). The assay can be described thus: Agonist activity at rat TRPA1 expressed in HEK293 cells assessed as induction of intracellular calcium level relative to allyl isothiocyanate. In kind it is cell-based.
In assay [5] the target is T1, Transient receptor potential cation channel subfamily A member 1. As to the kind of experiment: Agonist activity at rat TRPA1 expressed in HEK293 cells assessed as induction of intracellular calcium level. It counts as cell-based.
Assay [6] has as its target Transient receptor potential cation channel subfamily A member 1 (Homo sapiens, UniProt O75762). The assay can be described thus: Antagonist activity at human TRPA1 expressed in HEK293 cells assessed as inhibition of allyl isothiocyanate-induced increase of intracellular calcium level. It counts as cell-based.
For assay [7], the target named is T2, Transient receptor potential cation channel subfamily V member 1. The assay can be described thus: Antagonist activity at TRPV1 (unknown origin) in DRG neurons.
For assay [8] the target is unchanged. As to the kind of experiment: Antagonist activity at human TRPV1 expressed in HEK293 cells. In kind it is cell-based.
Assay [9] shares this target. The assay can be described thus: Antagonist activity at human TRPV1 expressed in HEK293 cells assessed as inhibition of capsaicin-induced increase of intracellular calcium level. It counts as cell-based.
Assay [10] concerns the target T1, Transient receptor potential cation channel subfamily A member 1. As to the kind of experiment: Agonist activity at rat TRPA1 expressed in HEK293 cells assessed as induction of intracellular calcium level in presence of AITC. In kind it is cell-based.
Assay [11] shares this target. As to the kind of experiment: Antagonist activity at rat TRPA1 expressed in HEK293 cells assessed as inhibition of AITC-induced increase of intracellular calcium level. In kind it is cell-based.

T1 sequence (Q6RI86 whole entry): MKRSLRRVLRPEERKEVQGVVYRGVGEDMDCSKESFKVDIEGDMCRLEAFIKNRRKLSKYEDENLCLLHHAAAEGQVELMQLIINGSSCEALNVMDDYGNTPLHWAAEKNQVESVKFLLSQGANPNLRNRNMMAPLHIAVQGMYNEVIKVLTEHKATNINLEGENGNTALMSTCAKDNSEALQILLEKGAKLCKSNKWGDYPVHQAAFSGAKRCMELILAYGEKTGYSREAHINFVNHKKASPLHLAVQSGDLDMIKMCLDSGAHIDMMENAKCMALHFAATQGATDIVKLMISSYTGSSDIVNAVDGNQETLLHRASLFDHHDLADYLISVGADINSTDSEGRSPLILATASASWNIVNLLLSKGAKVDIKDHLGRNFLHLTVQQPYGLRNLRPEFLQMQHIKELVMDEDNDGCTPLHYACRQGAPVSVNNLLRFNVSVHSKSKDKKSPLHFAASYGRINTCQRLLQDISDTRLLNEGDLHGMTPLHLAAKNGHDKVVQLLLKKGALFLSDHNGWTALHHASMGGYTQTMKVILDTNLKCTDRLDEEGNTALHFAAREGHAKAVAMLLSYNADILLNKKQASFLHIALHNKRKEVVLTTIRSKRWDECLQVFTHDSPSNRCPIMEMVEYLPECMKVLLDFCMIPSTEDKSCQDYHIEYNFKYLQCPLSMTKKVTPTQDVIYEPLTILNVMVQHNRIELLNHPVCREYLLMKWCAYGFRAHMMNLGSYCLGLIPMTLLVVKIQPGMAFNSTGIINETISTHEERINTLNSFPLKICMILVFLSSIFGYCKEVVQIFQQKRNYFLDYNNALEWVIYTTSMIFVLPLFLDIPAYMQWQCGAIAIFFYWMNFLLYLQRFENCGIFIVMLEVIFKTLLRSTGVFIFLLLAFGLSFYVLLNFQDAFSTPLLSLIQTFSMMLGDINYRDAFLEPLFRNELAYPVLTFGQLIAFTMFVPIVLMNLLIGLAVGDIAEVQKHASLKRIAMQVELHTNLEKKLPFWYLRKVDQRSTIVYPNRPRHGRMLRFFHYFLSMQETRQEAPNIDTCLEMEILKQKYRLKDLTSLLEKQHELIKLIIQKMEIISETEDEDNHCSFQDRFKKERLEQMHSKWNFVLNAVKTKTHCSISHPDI
Transient receptor potential cation channel subfamily A member 1 (Rattus norvegicus), sequence (Q6RI86 whole entry): as above
Transient receptor potential cation channel subfamily A member 1 (Homo sapiens, UniProt O75762), sequence (O75762 whole entry): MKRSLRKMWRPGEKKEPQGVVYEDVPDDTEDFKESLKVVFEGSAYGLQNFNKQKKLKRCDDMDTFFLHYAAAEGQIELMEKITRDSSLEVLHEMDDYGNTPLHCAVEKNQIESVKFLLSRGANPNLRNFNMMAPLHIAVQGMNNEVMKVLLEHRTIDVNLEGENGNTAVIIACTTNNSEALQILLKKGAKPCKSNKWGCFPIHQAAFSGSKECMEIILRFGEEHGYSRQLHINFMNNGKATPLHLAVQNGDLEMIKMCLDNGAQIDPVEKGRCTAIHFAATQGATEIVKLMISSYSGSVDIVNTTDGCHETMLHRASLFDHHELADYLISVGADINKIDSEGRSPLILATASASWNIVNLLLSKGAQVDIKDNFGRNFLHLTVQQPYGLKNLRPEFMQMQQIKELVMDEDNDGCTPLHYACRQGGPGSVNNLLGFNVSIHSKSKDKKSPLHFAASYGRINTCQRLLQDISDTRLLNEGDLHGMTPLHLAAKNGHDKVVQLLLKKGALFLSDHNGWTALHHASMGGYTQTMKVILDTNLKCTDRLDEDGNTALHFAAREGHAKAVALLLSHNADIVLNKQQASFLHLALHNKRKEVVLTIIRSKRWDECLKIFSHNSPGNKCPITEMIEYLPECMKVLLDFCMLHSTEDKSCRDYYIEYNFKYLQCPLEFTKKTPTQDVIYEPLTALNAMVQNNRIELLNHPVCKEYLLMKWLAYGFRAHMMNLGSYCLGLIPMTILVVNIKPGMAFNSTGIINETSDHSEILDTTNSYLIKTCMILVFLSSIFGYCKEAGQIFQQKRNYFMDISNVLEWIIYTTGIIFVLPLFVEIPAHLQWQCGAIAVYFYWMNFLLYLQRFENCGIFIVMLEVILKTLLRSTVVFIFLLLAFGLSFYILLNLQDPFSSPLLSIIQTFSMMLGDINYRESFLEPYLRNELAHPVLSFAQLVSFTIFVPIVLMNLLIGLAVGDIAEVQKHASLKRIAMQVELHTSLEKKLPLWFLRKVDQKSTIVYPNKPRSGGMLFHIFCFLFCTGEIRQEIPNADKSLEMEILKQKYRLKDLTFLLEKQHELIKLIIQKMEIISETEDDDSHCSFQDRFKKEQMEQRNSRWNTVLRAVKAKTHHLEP

Usually IC50 stands for the concentration that inhibits the measured activity by half. As usually defined, the EC50 is the concentration that produces a half-maximal response. As to `Oc1ccc(/C=C/c2ccc(O)cc2)cc1` [TRANS-4,4'-DIHYDROXYSTILBENE], the IC50 in [1] is 25.2 µM; in [2] it was more than 10 µM. Further, the figures for the Efficacy in [3] and in assay [4] were less than 10% and 40%, respectively. Besides, in [5], the EC50 worked out at 11 µM.
As to `COc1ccc(/C=C/c2ccccc2)cc1`, the results for the IC50 in assay [1], in assay [2] and in assay [6] were 17.8 µM, more than 10 µM and 12.1 µM, respectively. Also, the Efficacy in assay [3] was less than 10%; in [4] it was 49%. Also, in [5], the EC50 was 2.4 µM.
Regarding `COc1cccc(/C=C/c2ccccc2)c1`, the IC50 in assay [1] was 2.3 µM; in assay [2] it was more than 10 µM. For the same compound, the Efficacy was less than 10% in assay [3] and 101% in assay [4]. Further, the EC50 in assay [5] was determined as 1.7 µM.
In the same order, the values of `CC(=O)Oc1ccc(/C=C/c2cc(OC(C)=O)cc(OC(C)=O)c2)cc1` [TRIACETYLRESVERATROL] are 11.8 µM, more than 10 µM, less than 10%, 127% and 7.5 µM.
On the same counts, the results for `COc1ccc(/C=C/c2ccc(O)cc2)cc1` are 10 µM, more than 10 µM, less than 10%, 72.1% and 10.1 µM.
On the same counts, the results for `CC(=O)Oc1ccc(/C=C/c2ccccc2)cc1` are 29.4 µM, more than 10 µM, less than 10%, 89.7% and 16.3 µM.
For the compound `Oc1cc(O)cc(/C=C/c2ccccc2)c1` [PINOSYLVIN], the values for the IC50 in assay [1] and in assay [2] were 12.1 µM and more than 10 µM, respectively. For the same compound, the Efficacy in assay [3] and in [4] was less than 10% in each case.
On to `COc1ccc(/C=C/c2cc(OC)cc(OC)c2)cc1` [TRISMETHOXYRESVERATROL], for which the results for the IC50 in assay [1] and in assay [2] were 3 µM and more than 10 µM, respectively. The Efficacy is less than 10% in assay [3] and 72.5% in assay [4]. The half-maximal effective concentration (EC50) in assay [5] was 1.7 µM.
With `COc1cccc(/C=C/c2ccc(O)cc2)c1` [(E)-5-METHOXY-4'-STILBENOL], the IC50 in assay [1] is 10.1 µM; in [2], more than 10 µM. For the same compound, the Efficacy in assay [3] is less than 10%; in assay [4], 41.8%. Moreover, the EC50 in assay [5] came out at 6.6 µM.
In the same order, the values of `COc1ccc(/C=C/c2ccc(OC)cc2)cc1` are 10.6 µM, more than 10 µM, less than 10%, 86.7% and 4.2 µM.
Take `COc1cc(O)cc(/C=C/c2ccccc2)c1` [PINOSYLVIN METHYL ETHER]: the half-inhibitory concentration (IC50) in [1] is 6.9 µM; in assay [2], more than 10 µM; in assay [7], 30 µM; in [8], 15 µM; in assay [9], 23.7 µM. The Efficacy was less than 10% in assay [3] and 71.4% in assay [4]. Further, the 50% effective concentration (EC50) in assay [5] amounted to 3.5 µM.
Regarding `Oc1ccc(/C=C/c2ccccc2)cc1` [(E)-4-STYRYLPHENOL], the IC50 is 5.5 µM in assay [1] and more than 10 µM in assay [2]. For the same compound, the Efficacy in [3] was less than 10%; in assay [4], 61.9%. Besides, the EC50 in assay [5] worked out at 8.4 µM.
`Oc1ccccc1/C=C/c1ccccc1`: the results for the 50% inhibitory concentration (IC50) in assay [1] and in assay [2] were 2.2 µM and more than 10 µM, respectively. Moreover, the Efficacy in [3] was less than 10%; in assay [4], 88.4%. In addition, the EC50 in assay [5] came out at 0.58 µM.
Regarding `Oc1cccc(/C=C/c2ccccc2)c1` [(E)-3-STILBENOL], the figures for the IC50 in assay [1] and in assay [2] were 3.4 µM and more than 10 µM, respectively. For the same compound, the Efficacy was less than 10% in [3] and 77.4% in assay [4]. In [5], the half-maximal effective concentration (EC50) came to 1.8 µM.
In the same order, the values of `COc1cc(/C=C/c2ccc(O)cc2)cc(OC)c1` [PTEROSTILBENE] are 7.5 µM, more than 10 µM, less than 10%, 71.1% and 3.6 µM.
On the same counts, the results for `Oc1ccc(/C=C/c2cccc(O)c2)cc1` [(E)-3,4'-STILBENDIOL] are 16.5 µM, more than 10 µM, less than 10%, 73.4% and 13.5 µM.
In the same order, the values of `COc1cc(/C=C/c2ccccc2)cc(OC)c1` [3,5-O-DIMETHYLPINOSYLVIN] are 3.4 µM, more than 10 µM, less than 10%, 84.1% and 1.7 µM.
Regarding `COc1ccc(/C=C/c2cccc(OC)c2)cc1`, the concentration for half-maximal inhibition (IC50) in assay [1] is 2.9 µM; in [2], more than 10 µM. Besides, the Efficacy was less than 10% in assay [3] and 75% in assay [4]. Moreover, in assay [5], the EC50 was 1.5 µM.
On the same counts, the results for `COc1ccccc1/C=C/c1ccccc1` are 1.7 µM, more than 10 µM, less than 10%, 83.4% and 0.88 µM.
`Oc1ccc(/C=C/c2cc(O)cc(O)c2)cc1` [RESVERATROL]: the figures for the IC50 in [1], in assay [10] and in [11] were 19.9 µM, 2.74 µM and 0.75 µM, respectively. In [4], the Efficacy is less than 10%.
Regarding `CC(=O)Oc1ccccc1/C=C/c1ccccc1`, the IC50 in assay [1] is 8.6 µM; in [2] it was more than 10 µM. Further, the results for the Efficacy in assay [3] and in assay [4] were less than 10% and 135%, respectively. Also, the concentration giving a half-maximal response (EC50) in [5] was determined as 7.2 µM.

The record behind these values is ChEMBL document CHEMBL3751759, “TRPA1 channels as targets for resveratrol and related stilbenoids” (Bioorg Med Chem Lett, 2016).
